{"source": "patent US20060123501A1", "about": "“Method for treating inflammatory disorders” (priority 2004, published 2006)", "key": {"[1]": {"system": "cIAP2−/− and cIAP2+/+ mice", "test": "Serum cytokine levels (ELISA) after i.p. LPS", "type": "in vivo, mouse", "method": "LPS directly activates macrophages to produce large amounts of IL-1β and TNF-α and to mediate a cascade of events leading to endotoxic shock. We therefore assayed the levels of these pro-inflammatory cytokines in serum from cIAP2^−/− mice treated with LPS (35 mg LPS/kg). In cIAP2^−/− mice, IL-1β serum levels peaked at 4 h and then markedly dropped off (Table 4). This was in contrast to littermate controls where IL-1β levels decreased much later. […] As a further study, we also investigated the serum concentrations of IL-12 (Table 4) after an injection of LPS (35 mg/kg), yet again, we observed an attenuation of a macrophage cytokine, IL-12, by the 6 hour time point. Nevertheless, cIAP2^−/− mice did display early outward signs of sepsis, such as eye exudates and ruffled fur; however, their condition quickly ameliorated, corresponding to the observed waning of the LPS-induced inflammatory cytokines seen within the cIAP2^−/− mice.\nAdult 4-6 week old mice (n=3), cIAP2^−/− and littermate control mice, were injected i.p. with a LD100 dose of LPS (35 mg LPS/kg). At the appropriate times mice were anesthetized with phenobarbital and killed by cervical dislocation. The plasma was then collected from these animals and used to determine serum concentrations of IL-1β, TNF-α and IL-12 via an ELISA kit (R & D Systems)."}, "[2]": {"system": "cIAP2−/− mice and littermate controls", "conditions": "for LD100: i.p.", "method": "Mice were injected IP with a range of indicated LPS doses (n=15).\nSchoemaker et al. proposed an important role of cIAP2 in LPS-induced death of liver cells sensitized to endotoxic shock by D-galactosamine (DGLN) (22). […] Thus to investigate the role of cIAP2 in an innate immune response, the cIAP2^−/− mice were treated with LPS.\nAdult 4-6 week old mice (n=6 to 10) were injected intraperitoneally (i.p.) with a range of LPS doses (10 to 200 mg LPSD/kg) from E. coli (Sigma) in a total volume of 0.2 ml nonpyrogenic saline."}, "peritoneal macrophages": {"system": "peritoneal macrophages", "test": "TNF-α and IL-1β production of cultured peritoneal macrophages exposed to LPS (ELISA)", "type": "cell-based, mouse", "conditions": "cIAP2−/− peritoneal macrophages; LPS 0.1 to 1000 ng/ml; 10 and 24 h", "method": "Spleen- and peritoneal-derived macrophage cell count numbers are shown (A) for cIAP2^−/−, cIAP2^+/− and cIAP2^+/+ mice (n=10). Both cIAP2^−/− and littermate control-derived macrophages stained for the LPS binding surface receptor CD14 (B). The proliferation of B cells for cIAP2^−/− mice and littermate controls of cIAP2^+/+ after culturing with the indicated range of LPS doses (n=6) (C). Cultured macrophages from cIAP2^−/− or littermate control cIAP2^+/+ mice were exposed to LPS for 10 h and subsequently IL-1β (D) or TNF-α (E) levels were measured by ELISA (n=6). Additionally, macrophages were exposed to the indicated range of LPS doses for 24 h and IL-1β (F) or TNF-α (G) levels were determined (n=6). Results are mean±s.d. in triplicate per mouse, P<0.01\nThis dysfunction may be correlated to a reduced initial number of macrophages, to a block in the LPS-induced signaling pathway, or to an increased apoptotic susceptibility of the cIAP2^−/− macrophages. […]\nT and B cells were isolated from mouse lymphoid tissue (spleen) by first mincing and then pressing the tissue through a 10 μm metal mesh and were then counted by using trypan blue exclusion method. […] The resulting cells were then counted by using typan blue exclusion and Diff Quik™ Stain Kit (IMEB INC, San Marcos, Calif.). […] Concentrations of TNF-α and IL-1β, in primary tissue culture supernatants were determined by ELISA kit (R&D Systems)."}, "[3]": {"system": "cIAP2−/− and control mice", "from_the_text": "In addition, we exposed cIAP2^−/− mice to a second mode of LPS-induced toxicity, where treatment with D-galactosamine (DGLBN) sensitized mice to endotoxic shock."}, "[4]": {"conditions": "cIAP2+/+ mice, 2 hours after i.p. LPS 35 mg/kg"}, "[5]": {"conditions": "cIAP2+/+ mice, 6 hours after i.p. LPS 35 mg/kg"}, "[6]": {"conditions": "cIAP2+/+ mice, 10 hours after i.p. LPS 35 mg/kg"}, "[7]": {"conditions": "cIAP2−/− mice, 2 hours after i.p. LPS 35 mg/kg"}, "[8]": {"conditions": "cIAP2−/− mice, 6 hours after i.p. LPS 35 mg/kg"}, "[9]": {"conditions": "cIAP2−/− mice, 10 hours after i.p. LPS 35 mg/kg"}}, "note": "Read-outs that look alike come from different tables or passages of the source.", "data": [{"substance": "lipopolysaccharide [LPS]", "values": [{"measurement": "IL-1β Serum Levels", "setting": "[1]; [4]", "value": "476 ± 24", "unit": "pg/mL"}, {"measurement": "IL-12 Serum Leves", "setting": "[1]; [4]", "value": "210 ± 17", "unit": "pg/mL"}, {"measurement": "TNFα Serum Levels", "setting": "[1]; [4]", "value": "1623 ± 348", "unit": "pg/mL"}, {"measurement": "IL-1β Serum Levels", "setting": "[1]; [5]", "value": "993 ± 158", "unit": "pg/mL"}, {"measurement": "IL-12 Serum Leves", "setting": "[1]; [5]", "value": "260 ± 31", "unit": "pg/mL"}, {"measurement": "TNFα Serum Levels", "setting": "[1]; [5]", "value": "502 ± 56", "unit": "pg/mL"}, {"measurement": "IL-1β Serum Levels", "setting": "[1]; [6]", "value": "669 ± 48", "unit": "pg/mL"}, {"measurement": "TNFα Serum Levels", "setting": "[1]; [6]", "value": "371 ± 64", "unit": "pg/mL"}, {"measurement": "IL-1β Serum Levels", "setting": "[1]; [7]", "value": "314 ± 153", "unit": "pg/mL"}, {"measurement": "IL-12 Serum Leves", "setting": "[1]; [7]", "value": "152 ± 24", "unit": "pg/mL"}, {"measurement": "TNFα Serum Levels", "setting": "[1]; [7]", "value": "1589 ± 413", "unit": "pg/mL"}, {"measurement": "IL-1β Serum Levels", "setting": "[1]; [8]", "value": "476 ± 78", "unit": "pg/mL"}, {"measurement": "IL-12 Serum Leves", "setting": "[1]; [8]", "value": "11 ± 5", "unit": "pg/mL"}, {"measurement": "TNFα Serum Levels", "setting": "[1]; [8]", "value": "202 ± 89", "unit": "pg/mL"}, {"measurement": "IL-1β Serum Levels", "setting": "[1]; [9]", "value": "162 ± 21", "unit": "pg/mL"}, {"measurement": "TNFα Serum Levels", "setting": "[1]; [9]", "value": "8 ± 7", "unit": "pg/mL"}, {"measurement": "Time of peak IL-1β serum levels", "setting": "[1]; cIAP2−/− mice, LPS 35 mg/kg", "value": 4, "unit": "h"}, {"measurement": "TNF-α serum levels", "setting": "[1]; cIAP2−/− mice, by 10 hours, LPS 35 mg/kg", "value": "approximately 10 pg/ml"}, {"measurement": "TNF-α serum levels (stabilized, maintained until death)", "setting": "[1]; littermate controls, LPS 35 mg/kg", "value": "approximately 400 pg/ml"}, {"measurement": "Survival", "setting": "[2]; all littermate controls, LPS dose of 60 mg/kg and above", "value": "did not survive past the first day"}, {"measurement": "Survival time", "setting": "[2]; cIAP2−/− mice, LPS dose of 200 mg LPS/kg", "value": "2 to 7", "unit": "days"}, {"measurement": "LD100", "setting": "[2]; cIAP2−/− mice", "value": 100, "unit": "mg LPS/kg"}, {"measurement": "Time within which all died", "setting": "[2]; control littermates, 40 mg LPS/kg", "value": "≤ 24", "unit": "h"}, {"measurement": "LD100", "setting": "[2]; control littermates", "value": 35, "unit": "mg LPS/kg"}, {"measurement": "LD100 of cIAP2−/− mice compared to that of control littermates", "setting": "[2]; i.p. LPS", "value": "approximately 3 ×"}, {"measurement": "TNF-α and IL-1β levels relative to littermate controls", "setting": "peritoneal macrophages", "value": "generated comparable levels of TNF-α and IL-1β"}, {"measurement": "Time to demise of the mice", "setting": "[3]; LPS with DGLN, cIAP2−/− mice and control littermates", "value": "< 3", "unit": "h"}, {"measurement": "Survival", "setting": "[3]; cIAP2+/+ mice, LPS 0.5 μg/kg with D-galactosamine 0.6 g/kg i.p.", "value": "6/6"}, {"measurement": "Survival", "setting": "[3]; cIAP2+/+ mice, LPS 1 μg/kg with D-galactosamine 0.6 g/kg i.p.", "value": "6/6"}, {"measurement": "Survival", "setting": "[3]; cIAP2+/+ mice, LPS 5 μg/kg with D-galactosamine 0.6 g/kg i.p.", "value": "2/6"}, {"measurement": "Survival", "setting": "[3]; cIAP2+/+ mice, LPS 10 μg/kg with D-galactosamine 0.6 g/kg i.p.", "value": "0/6"}, {"measurement": "Survival", "setting": "[3]; cIAP2+/+ mice, LPS 20 μg/kg with D-galactosamine 0.6 g/kg i.p.", "value": "0/6"}, {"measurement": "Survival", "setting": "[3]; cIAP2−/− mice, LPS 0.5 μg/kg with D-galactosamine 0.6 g/kg i.p.", "value": "6/6"}, {"measurement": "Survival", "setting": "[3]; cIAP2−/− mice, LPS 1 μg/kg with D-galactosamine 0.6 g/kg i.p.", "value": "6/6"}, {"measurement": "Survival", "setting": "[3]; cIAP2−/− mice, LPS 5 μg/kg with D-galactosamine 0.6 g/kg i.p.", "value": "2/6"}, {"measurement": "Survival", "setting": "[3]; cIAP2−/− mice, LPS 10 μg/kg with D-galactosamine 0.6 g/kg i.p.", "value": "0/6"}, {"measurement": "Survival", "setting": "[3]; cIAP2−/− mice, LPS 20 μg/kg with D-galactosamine 0.6 g/kg i.p.", "value": "0/6"}]}]}
